Assay results: patent publication US5770713A, “Phosphorothioate triester oligonucleotides and method of preparation” (Centre National de la Recherche Scientifique, priority 1993, dated 1998)

Key:
[1] = Stability of oligonucleotides in culture medium (RPMI + 10% serum), HPLC; type: in vitro ADME, fetal calf; conditions: 37° C.
Method: (§1) Distilled water is purified on a MilliQ system (Waters-Millipore), Acetonitrile is of HPLC-far UV quality (Fisons), Ammonium acetate is of "analytical" quality (MERCK), The culture media are composed of 90% of RPMI 1640 and 10% of heat-inactivated fetal calf serum (GIBCO), The cellular extracts were kindly supplied by a person -M. Aubertin (University of Strasbourg I). They are prepared in the following way: CEM cells in the exponential growth phase are separated from the culture medium by centrifugation (10^4 g, 4 min, […]). The residue (approximately100 μl, 5×10^7 cells) is dissolved in 2 ml of buffer (Tris-HCl 140 mM, pH=7.4) and sonicated. The lysate is centrifuged (10^5 g, 1 h, 4°) to eliminate membranes, organelles and chromatin. Two types of eluents were utilized for the HPLC:
(§2) The general conditions are the same as those used for the study of stability of the phosphorothioate triester dimers, as far as the method, the equipment and the chemical products are concerned. […]
30 μl of parent solution of oligonucleotide (being approximately 1.5 A260 units) are removed, which are added to 1470 μl of culture medium which has previously been filtered on a sterile Millex GV filter (Millipore 0.22 μm). […] The samples are immediately analyzed by HPLC (volume injected 80 μl) or preserved at -25° C. with a view to subsequent analysis.

[2] = Stability of oligonucleotides in cellular extract (CEM cells), HPLC; type: in vitro ADME; conditions: 37° C.
Method: as §1, §2
10 μl of oligonucleotide parent solution are added to 990 μl of cellular extract which have previously been filtered on a sterile Millex GV filter (Millipore, 0.22 μm). After mixing, fractions (100 μl) are distributed in sterile Eppendorf tubes, placed in an oven at 37° C., sampled at different times and immediately analyzed by HPLC.

[3] = Stability of dimers in culture medium (RPMI + 10% serum), HPLC; type: in vitro ADME, fetal calf; conditions: 37° C., C0 =5×10^-5 M; for % PS^- (molar fraction of phosphorothioate diester dinucleoside formed, relative to initial quantity of phosphorothioate triester dinucleoside): after complete decomposition of the starting triester; for % PO^- (molar fraction of phosphodiester dinucleoside, relative to initial quantity of phosphorothioate triester dinucleoside): calculated as 100-% PS^- formed; for half-life at 50 µM: read-out: t1/2 (time at the end of which half of the starting product has decomposed) (converted)
Method: as §1
(§3) A 10^-2 M solution of the compound to be studied is prepared in DMSO.
(§4) This solution is diluted with water to give a parent solution of concentration 5×10^-4 M.
a) Study of stability in culture medium:
100 μl of parent solution of the compound to be studied are added to 900 μl of culture medium which has previously been filtered on a Millex GV sterile filter (Millipore, 0.22 μm). After mixing, fractions (100 μl) are distributed in sterile Eppendorf tubes. These tubes are placed in an oven at 37° C. and removed as a function of the kinetic development. The samples are immediately analyzed by HPLC (volume injected: 80 μl) or preserved at -25° C. with a view to subsequent analysis.
(§5) tl/2 =time at the end of which half of the starting product has decomposed
(§6) % PO^- , % PS^- =molar fractions of phosphodiester dinucleoside and of phosphorothioate diester dinucleoside, expressed in relation to the initial quantity of phosphorothioate triester dinucleoside.
(§7) The percentage of PS^- corresponds to the quantity of phosphorothioate diester dinucleoside formed after complete decomposition of the starting phosphorothioate triester dinucleoside (considering that the phosphorothioate diester dinucleoside is stable under the condition used and accumulates).

[4] = Stability of dimers in cellular extract (CEM cells), HPLC; type: in vitro ADME; conditions: 37° C., C0 =5×10^-5 M; for % PS^- (molar fraction of phosphorothioate diester dinucleoside formed, relative to initial quantity of phosphorothioate triester dinucleoside): after complete decomposition of the starting triester; for half-life at 50 µM: human, cem cell extract, read-out: t1/2 (time at the end of which half of the starting product has decomposed)
Method: as §1, §3, §4
b) Study of stability in cellular extract: 100 μl of parent solution of the compound to be studied are added to 900 μl of cellular extract which has previously been filtered on a Millex GV sterile filter (Millipore, 0.22 μm). After mixing, fractions (100 μl) are distributed in Eppendorf tubes. These tubes are placed in an oven at 37° C. and removed as a function of the kinetic development. The samples are immediately analyzed by HPLC.
as §5, §6, §7

| Compound | t1/2 of disappearance of the starting oligonucleotide [1] | t1/2 of disappearance of the starting oligonucleotide [2] | t1/2 of formation of the totally deprotected oligonucleotide [2] | % PS^- (molar fraction of phosphorothioate diester dinucleoside formed, relative to initial quantity of phosphorothioate triester dinucleoside) [3] | % PO^- (molar fraction of phosphodiester dinucleoside, relative to initial quantity of phosphorothioate triester dinucleoside) [3] | half-life at 50 µM [3] | % PS^- (molar fraction of phosphorothioate diester dinucleoside formed, relative to initial quantity of phosphorothioate triester dinucleoside) [4] | half-life at 50 µM [4] |
| --- | --- | --- | --- | --- | --- | --- | --- | --- |
| 6b: completely alkylated phosphorothioate dodecamer 6b; from d(CP(S) Ap(s) Cp(s) Cp(s) Cp(s) Ap(s) Ap(s) Tp(s) Tp(s) Cp(s) Tp(s) G) SEQ. ID. NO: 1 (CACCCAATTCTG; DNA, backbone not given here; all phosphorothioate linkages alkylated) [Compound 6b, completely alkylated phosphorothioate dodecamer 6b; ID; NO: 1] | 55 min | < 2 min | 25 min |  |  |  |  |  |
| Cc1cn([C@H]2C[C@H](OP(=O)(OC[C@H]3O[C@@H](n4cc(C)c(=O)[nH]c4=O)C[C@@H]3O)SCOC(=O)C(C)(C)C)[C@@H](CO)O2)c(=O)[nH]c1=O (stereo partly drawn) [Compound 4a, O-(Thymidin-3'-yl) O-(thymidin-5'-yl) S-(pivaloyloxymethyl) phosphorothioate] |  |  |  | 20% | 80% | 360 min | 100% | 40 min |
| CC(=O)SCCSP(=O)(OC[C@H]1O[C@@H](n2cc(C)c(=O)[nH]c2=O)C[C@@H]1O)O[C@H]1C[C@H](n2cc(C)c(=O)[nH]c2=O)O[C@@H]1CO (stereo partly drawn) [Compound 4b, O-(Thymidin-3'-yl) O-(thymidin-5'-yl) S-(acetylthioethyl) phosphorothioate] |  |  |  | 50% | 50% | 420 min | 100% | 10 min |
| CC(=O)SCSP(=O)(OC[C@H]1O[C@@H](n2cc(C)c(=O)[nH]c2=O)C[C@@H]1O)O[C@H]1C[C@H](n2cc(C)c(=O)[nH]c2=O)O[C@@H]1CO (stereo partly drawn) [Compound 4c, O-(Thymidin-3'-yl) O-(thymidin-5'-yl) S-(acetylthiomethyl) phosphorothioate] |  |  |  | 80% | 20% | 60 min | 100% | 5 to 10 min |
